Values of other authors, collected in patent publication US20220226302A1, “ENHANCEMENT OF CAMP SIGNALING AS A COMBINATION DRUG STRATEGY FOR THE TREATMENT OF DEPRESSION AND RELATED CONDITIONS” (Altos Neuroscience, Inc., priority 2021, published 2022).

What was measured:
PDE4 [1] = conditions: in vivo
[2] = in vivo
depression [3] = conditions: two acute treatment clinical trials, humans
PDE4 [4] = system: PDE4
depression [5] = conditions: patients with depression, small clinical trials

brain penetration [2] | SMILES | antidepressant effect (PDE4 [1]) | pro-cognitive effect (PDE4 [1]) | antidepressant-like effects in animals (β3 adrenergic receptor) | efficacy in clinical trials for depression (depression [3]) | phenotype of treated mice (PDE4 [4]) | improvement in depression versus TCA medications (depression [5])
can also reach the brain | O=C(Nc1c(Cl)cncc1Cl)c1ccc(OC(F)F)c(OCC2CC2)c1 [Roflumilast, roflumilast] | no evidence of an antidepressant effect | pro-cognitive effects | – | – | – | –
brain penetrant | CCOC(=O)COc1ccc2c(c1)C[C@@H](NC[C@H](O)c1cccc(Cl)c1)CC2 [amibegron] | – | – | promising antidepressant-like effects in animals | failed to show efficacy in two acute treatment clinical trials | – | –
– | COc1ccc(C2CNC(=O)C2)cc1OC1CCCC1 (centres unmarked) [rolipram] | – | – | – | – | antidepressant and pro-cognitive phenotypes | In none of these studies, however, did rolipram produce a greater improvement in depression than the TCA medications
